Test [1] has as its system 59 human tumour cell lines. The test is described as follows: NCI single (10 µM) dose screening, whole panel. The test is classed as cell-based. To be noted: 10 µM single dose; for Sensitive cells no.: number of the 59 cell lines with GI % more than 20%; for inhibition at 10 µM: Homo sapiens, SRB assay, mean over NCI panel, read-out: mean percentage growth inhibition (mean% GI). How it is done:
(§1) Following NCI protocol, sixteen MPCs were screened for their potential in vitro anticancer effects against human 59 cancer cell panels including prostate, leukaemia melanoma, colon, breast, CNS, renal, NSCLC, and ovarian cancers by National Cancer Institute (USA)[30].
(§2) The antiproliferative activities of MPC 3 and MPCs 5a–o were first evaluated in a 10 µM dose assay, with SRB assay used to determine cell survival and proliferation. […] The results of the cell growth inhibitory activities for MPCs 5g and 5l towards the different treated tumour cell lines were presented as GI% and presented in Table 3.
(§3) The anticancer test was conducted using the methods of the Drug Evaluation Branch, National Cancer Institute, Bethesda, MD, using 59 human tumour cell lines derived from nine human tissues. The GI50, TGI, and LC50 dose-response parameters were calculated for each medication.

The test system of the next test is NCI-H460. Briefly: NCI single (10 µM) dose SRB screening, NCI-H460. The test is classed as cell-based, human. To be noted: 10 µM single dose, NCI-H460, NSC lung cancer. How it is done: as §1, §2, §3
A further test deals with SF-295. The test is described as follows: NCI single (10 µM) dose SRB screening, SF-295. The test is classed as cell-based, human. The conditions noted are these: 10 µM single dose, SF-295, CNS cancer. On the procedure: as §1, §2, §3
The next test relates to M14. Briefly: NCI single (10 µM) dose SRB screening, M14. The test is classed as cell-based, human. To be noted: 10 µM single dose, M14, Melanoma. How it is done: as §1, §2, §3
A further test concerns 786-0. The test is described as follows: NCI single (10 µM) dose SRB screening, 786-0. Type of test: cell-based, human. The conditions noted are these: 10 µM single dose, 786-0, Renal cancer. On the procedure:
as §1, §2, §3

In the next test the test system is DU-145. Briefly: NCI single (10 µM) dose SRB screening, DU-145. To be noted: 10 µM single dose, DU-145, Prostate cancer. Type of test: cell-based, human. How it is done: as §1, §2, §3
Another test concerns SNB-19. Briefly: NCI single (10 µM) dose SRB screening, SNB-19. Type of test: cell-based, human. To be noted: 10 µM single dose, SNB-19, CNS cancer. How it is done:
as §1, §2, §3

Test [2] relates to fifty-nine cancer cell lines. Briefly: full NCI panel five dose assay, whole panel. The test is classed as cell-based. The conditions noted are these: five-dose (0.01–100 µM). How it is done:
(§4) MPC 5l was then chosen for additional biological evaluation in a five-dose (0.01–100 µM) experiment. MPC 5l's GI50, TGI, and LC50 response parameters were obtained for each of the cancer cell lines studied. TGI represents cytostatic impact, whereas GI50 values reflect the extent of growth inhibitory effect. Furthermore, the LC50 parameter is regarded as the cytotoxicity parameter for the hybrid under investigation.
as §3

In another test the test system is K-562. Briefly: NCI five dose assay, K-562. The test is classed as cell-based, human. How it is done: as §4, §3
The next test concerns RPMI-8226. The test is described as follows: NCI five dose assay, RPMI-8226. The test is classed as cell-based, human. The conditions noted are these: RPMI-8226, Leukaemia. How it is done: as §4, §3
Another test concerns SR. The test is described as follows: NCI five dose assay, SR. Type of test: cell-based, human. To be noted: Leukaemia. How it is done:
as §4, §3

The test system of another test is HOP-92. The test is described as follows: NCI five dose assay, HOP-92. Type of test: cell-based, human. The conditions noted are these: HOP-92, NSC lung cancer. How it is done:
as §4, §3

A further test relates to HCT-116. Briefly: NCI five dose assay, HCT-116. Type of test: cell-based, human. To be noted: HCT-116, Colon cancer. On the procedure:
as §4, §3

The test system of another test is SW-620. The test is described as follows: NCI five dose assay, SW-620. Type of test: cell-based, human. To be noted: SW-620, Colon cancer. On the procedure: as §4, §3
In a further test the test system is U251. The test is described as follows: NCI five dose assay, U251. Type of test: cell-based, human. How it is done: as §4, §3
In the next test the test system is LOX IMVI. The test is described as follows: NCI five dose assay, LOX IMVI. Type of test: cell-based, human. To be noted: Melanoma. How it is done: as §4, §3
For a further test, the system named is MCF7. Briefly: NCI five dose assay, MCF7. The test is classed as cell-based, human. The conditions noted are these: MCF7, Breast cancer. On the procedure: as §4, §3
Setting [3] is: Homo sapiens, read-out: IC50 (the source's name).

This note sets out measurements from article PMC9037210, “Novel 3-(6-methylpyridin-2-yl)coumarin-based chalcones as selective inhibitors of cancer-related carbonic anhydrases IX and XII endowed with anti-proliferative activity” (Journal of Enzyme Inhibition and Medicinal Chemistry, 2022).

On to `Cc1nc(-c2cc3ccccc3oc2=O)ccc1C(=O)/C=C/c1ccc(N2CCOCC2)cc1` [Compound 5g, 3-(6-Methyl-5-[(2E)-3-[4-(morpholin-4-yl)phenyl]prop-2-enoyl]pyridin-2-yl)-2H-chromen-2-one], for which, in test [1], the Sensitive cells no. was 31. Besides, the inhibition at 10 µM in test [1] turned out to be 28%. The GI % entry is reported as “– (Only GI % more than 20% are displayed.)” in the test on NCI-H460; 33% in the test on SF-295; 54% with M14; 24% in the test on 786-0; “– (Only GI % more than 20% are displayed.)” in the test on DU-145.

With `Cc1nc(-c2cc3ccccc3oc2=O)ccc1C(=O)/C=C/c1ccccn1` [Compound 5l, 3-(6-Methyl-5-[(2E)-3-(pyridin-2-yl)prop-2-enoyl]pyridin-2-yl)-2H-chromen-2-one], the Sensitive cells no. in test [1] is reported as 42. The inhibition at 10 µM in test [1] came out at 50%. For the same compound, the GI % in the test on NCI-H460 is recorded as 58%; in the test on SF-295, 28%; in the test on SNB-19, 28%; in the test with M14 it was “– (Only GI % more than 20% are displayed.)”; with 786-0, 93%; with DU-145 it was 52%. Also, the CC50 in test [2] (Homo sapiens, all cancer cells, read-out: LC50 (the source's name)) was over 100 µM. The GI50 in test [2] (Homo sapiens, remaining cancer cells (other than the nine of Table 4)) was over 100 µM; in the test on K-562 (Homo sapiens, K562, K-562, Leukaemia) it was 6.47 µM; in the test on RPMI-8226 (Homo sapiens), 3.41 µM; in the test with SR (Homo sapiens) it was 5.3 µM; in the test with HOP-92 (Homo sapiens) it was 7.25 µM; with HCT-116 (Homo sapiens), 6.34 µM. The GI50 in the test with SW-620 (Homo sapiens) was 6.77 µM; with U251 (Homo sapiens, U-251, U251, CNS cancer), 8.49 µM; in the test with LOX IMVI (Homo sapiens), 3.2 µM; in the test with MCF7 (Homo sapiens), 3.72 µM. Also, the TGI is over 100 µM in test [2] (all cancer cell lines); over 100 µM with K-562 (K-562, Leukaemia); over 100 µM in the test on RPMI-8226; over 100 µM in the test with SR; over 100 µM in the test with HOP-92; over 100 µM with HCT-116. Also, the TGI in the test with SW-620 was over 100 µM; in the test on U251 (U251, CNS cancer) it was over 100 µM; in the test on LOX IMVI, over 100 µM; with MCF7 it was over 100 µM. Moreover, the LC50 was over 100 µM in the test on K-562 (Homo sapiens, K562, K-562, Leukaemia, read-out: IC50 (the source's name)); over 100 µM in the test on RPMI-8226 (setting [3]); over 100 µM in the test with SR (setting [3]); over 100 µM in the test with HOP-92 (setting [3]); over 100 µM in the test on HCT-116 (setting [3]); over 100 µM with SW-620 (setting [3]). In addition, the LC50 in the test on U251 (Homo sapiens, U-251, U251, CNS cancer, read-out: IC50 (the source's name)) was over 100 µM; in the test on LOX IMVI (setting [3]) it was over 100 µM; in the test on MCF7 (setting [3]) it was over 100 µM.
